23 compounds from patent US9586961B2, “Homopiperazine derivatives as protein tyrosine kinase inhibitors and pharmaceutical use thereof” (LEO PHARMA A/S, priority 2010, dated 2017) can be followed below.

Common to all, as to assay type: biochemical
The target of test [1] is T1, JAK1 (Homo sapiens, UniProt P23458).
T1 construct: JAK1 (aa 850-1154) and TYK2 (aa 871-1187) are expressed with an N-terminally fused GST-tag; GST (N); purchased Carna Biosciences, Inc; host or cells: baculovirus expression system
T1 sequence (P23458 850-1154): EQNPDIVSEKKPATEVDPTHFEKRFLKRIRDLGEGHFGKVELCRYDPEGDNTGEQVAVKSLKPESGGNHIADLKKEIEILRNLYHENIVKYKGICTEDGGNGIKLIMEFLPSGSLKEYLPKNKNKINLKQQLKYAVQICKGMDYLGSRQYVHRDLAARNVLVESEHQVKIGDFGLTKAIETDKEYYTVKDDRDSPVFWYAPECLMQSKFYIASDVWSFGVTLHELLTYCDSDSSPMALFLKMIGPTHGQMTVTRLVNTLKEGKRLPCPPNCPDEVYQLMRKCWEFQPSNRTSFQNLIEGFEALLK
Kind of test: JAK1 kinase assay (HTRF, inhibition of phosphorylation of a synthetic peptide). The conditions noted are these: catalytic domain aa 850-1154, GST-tag; 7 μM ATP (Km); read-out: JAK1 kinase inhibitory activity (EC50). In outline: (§1)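 Baculovirus-expressed catalytic domains (GST-JAK1 aa 850-1154, GST-TYK2 aa 871-1187, His-JAK2, His-JAK3) phosphorylate 1 μM biotin-TK peptide 20-30 min at RT in 50 mM Hepes pH 7.0 with ATP at Km: JAK1 7 μM, JAK2 4 μM, JAK3 2 μM, TYK2 13 μM; 0.75% DMSO. Stopped with EDTA, HTRF read overnight.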

Test [2] deals with T2, JAK2 (Homo sapiens, UniProt O60674).
T2 construct: All four purified enzymes contain only the catalytic domain; His (N); purchased Carna Biosciences, Inc; host or cells: baculovirus expression system
T2 sequence (O60674 849-1124 limits assumed): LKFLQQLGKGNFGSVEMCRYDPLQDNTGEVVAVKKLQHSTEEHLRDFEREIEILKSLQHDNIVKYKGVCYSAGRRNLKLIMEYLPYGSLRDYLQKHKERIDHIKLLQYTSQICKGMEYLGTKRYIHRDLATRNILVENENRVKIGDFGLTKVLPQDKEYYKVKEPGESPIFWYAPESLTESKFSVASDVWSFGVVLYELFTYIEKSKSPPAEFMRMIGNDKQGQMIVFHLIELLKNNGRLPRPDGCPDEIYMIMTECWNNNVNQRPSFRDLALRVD
Kind of test: JAK2 kinase assay (HTRF, inhibition of phosphorylation of a synthetic peptide). The note with it: catalytic domain, His-tag; 4 μM ATP (Km); read-out: JAK2 kinase inhibitory activity (EC50). In outline: as §1

In test [3] the target is T3, JAK3 (Homo sapiens, UniProt P52333).
T3 construct: All four purified enzymes contain only the catalytic domain; His (N); purchased Carna Biosciences, Inc; host or cells: baculovirus expression system
T3 sequence (P52333 822-1111 limits assumed): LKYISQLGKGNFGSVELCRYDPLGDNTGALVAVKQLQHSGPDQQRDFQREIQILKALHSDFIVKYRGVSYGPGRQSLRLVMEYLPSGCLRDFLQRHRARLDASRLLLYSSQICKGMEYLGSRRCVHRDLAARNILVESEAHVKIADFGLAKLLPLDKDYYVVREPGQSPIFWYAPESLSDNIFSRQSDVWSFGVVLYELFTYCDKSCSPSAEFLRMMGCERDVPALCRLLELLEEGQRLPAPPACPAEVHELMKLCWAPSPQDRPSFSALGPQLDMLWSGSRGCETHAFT
Kind of test: JAK3 kinase assay (HTRF, inhibition of phosphorylation of a synthetic peptide). The conditions noted are these: catalytic domain, His-tag; 2 μM ATP (Km); read-out: JAK3 kinase inhibitory activity (EC50). In outline:
as §1

For test [4], the target named is T4, TYK2 (Homo sapiens, UniProt P29597).
T4 construct: JAK1 (aa 850-1154) and TYK2 (aa 871-1187) are expressed with an N-terminally fused GST-tag; GST (N); purchased Carna Biosciences, Inc; host or cells: baculovirus expression system
T4 sequence (P29597 871-1187): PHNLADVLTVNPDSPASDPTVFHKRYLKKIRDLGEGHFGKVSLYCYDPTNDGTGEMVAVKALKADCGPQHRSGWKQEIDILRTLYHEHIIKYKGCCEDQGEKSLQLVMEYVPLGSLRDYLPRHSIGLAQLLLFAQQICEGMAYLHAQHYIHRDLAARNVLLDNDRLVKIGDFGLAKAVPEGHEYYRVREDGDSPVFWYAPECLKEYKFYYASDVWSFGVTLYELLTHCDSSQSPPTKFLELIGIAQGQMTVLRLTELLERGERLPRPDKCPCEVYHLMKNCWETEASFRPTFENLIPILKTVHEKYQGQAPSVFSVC
Kind of test: TYK2 kinase assay (HTRF, inhibition of phosphorylation of a synthetic peptide). The note with it: catalytic domain aa 871-1187, GST-tag; 13 μM ATP (Km); read-out: TYK2 kinase inhibitory activity (EC50). In outline:
as §1

For `O=C(c1cnsn1)N1CCCN(c2ncnc3[nH]ccc23)CC12CC2` [Example 203, [5-(7H-pyrrolo[2,3-d]pyrimidin-4-yl)-5,9-diazaspiro[2.6]nonan-9-yl]-(1,2,5-thiadiazol-3-yl)methanone], the concentration for a half-maximal effect (EC50) in test [1] was less than 100 nM; in test [2], less than 100 nM; in test [3], 100 to 1000 nM; in test [4], 100 to 1000 nM.

In the case of `N#Cc1c[nH]c(C(=O)N2CCCN(c3ncnc4[nH]ccc34)CC23CC3)c1` [Example 209, 5-[5-(7H-pyrrolo[2,3-d]pyrimidin-4-yl)-5,9-diazaspiro[2.6]nonane-9-carbonyl]-1H-pyrrole-3-carbonitrile], the concentration for a half-maximal effect (EC50) in test [1], in test [2], in test [3] and in test [4] was less than 100 nM throughout.

As to `O=C(c1ccc[nH]1)N1CCCN(c2ncnc3[nH]ccc23)CC12CC2` [Example 255, [5-(7H-pyrrolo[2,3-d]pyrimidin-4-yl)-5,9-diazaspiro[2.6]nonan-9-yl]-(1H-pyrrol-2-yl)methanone], the EC50 in test [1] was less than 100 nM; in test [2] it was less than 100 nM; in test [3] it was 100 to 1000 nM; in test [4] it was 100 to 1000 nM.

With `Nc1nonc1C(=O)N1CCCN(c2ncnc3[nH]ccc23)CC12CC2` [Example 256, (4-amino-1,2,5-oxadiazol-3-yl)-[5-(7H-pyrrolo[2,3-d]pyrimidin-4-yl)-5,9-diazaspiro[2.6]nonan-9-yl]methanone], the concentration for a half-maximal effect (EC50) in test [1] is less than 100 nM; in test [2], less than 100 nM; in test [3] it was less than 100 nM; in test [4], 100 to 1000 nM.

Consider `N#Cc1ccc(C(=O)N2CCCN(c3ncnc4[nH]ccc34)CC23CC3)o1` [Example 258, 5-[5-(7H-pyrrolo[2,3-d]pyrimidin-4-yl)-5,9-diazaspiro[2.6]nonane-9-carbonyl]furan-2-carbonitrile], for which the EC50 in test [1] was less than 100 nM; in test [2], less than 100 nM; in test [3], 100 to 1000 nM; in test [4] it was 100 to 1000 nM.

As to `Cc1ccc(CC(=O)N2CCN(c3ncnc4[nH]ccc34)CC3(CC3)C2)cc1` [Example 263], the EC50 in test [1] is less than 100 nM; in test [2], less than 100 nM; in test [3] it was 100 to 1000 nM; in test [4] it was 100 to 1000 nM.

Consider `O=C(Cc1ccc(Br)cc1)N1CCN(c2ncnc3[nH]ccc23)CC2(CC2)C1` [Example 264, 2-(4-bromophenyl)-1-[5-(7H-pyrrolo[2,3-d]pyrimidin-4-yl)-5,8-diazaspiro[2.6]nonan-8-yl]ethanone], for which the EC50 in test [1] is less than 100 nM; in test [2] it was less than 100 nM; in test [3] it was less than 100 nM; in test [4] it was 100 to 1000 nM.

Turning to `O=C(Cc1ccc(C(F)(F)F)cc1)N1CCN(c2ncnc3[nH]ccc23)CC2(CC2)C1` [Example 271, 1-[5-(7H-pyrrolo[2,3-d]pyrimidin-4-yl)-5,8-diazaspiro[2.6]nonan-8-yl]-2-[4-(trifluoromethyl)phenyl]ethanone], the EC50 was less than 100 nM in test [1], less than 100 nM in test [2], 100 to 1000 nM in test [3] and 100 to 1000 nM in test [4].

As for `O=C(Cc1ccc(OC(F)(F)F)cc1)N1CCN(c2ncnc3[nH]ccc23)CC2(CC2)C1` [Example 274, 1-[5-(7H-pyrrolo[2,3-d]pyrimidin-4-yl)-5,8-diazaspiro[2.6]nonan-8-yl]-2-[4-(trifluoromethoxy)phenyl]ethanone], the EC50 in test [1] is less than 100 nM; in test [2], less than 100 nM; in test [3], 100 to 1000 nM; in test [4], more than 1000 nM.

On to `Cc1c[nH]c(C(=O)N2CCCN(c3ncnc4[nH]ccc34)CC23CC3)c1` [Example 277, (4-methyl-1H-pyrrol-2-yl)-[5-(7H-pyrrolo[2,3-d]pyrimidin-4-yl)-5,9-diazaspiro[2.6]nonan-9-yl]methanone], for which the concentration for a half-maximal effect (EC50) in test [1] was less than 100 nM; in test [2], less than 100 nM; in test [3], 100 to 1000 nM; in test [4] it was 100 to 1000 nM.

Regarding `Cc1[nH]c(C(=O)N2CCCN(c3ncnc4[nH]ccc34)CC23CC3)cc1C#N` [Example 278, 2-methyl-5-[5-(7H-pyrrolo[2,3-d]pyrimidin-4-yl)-5,9-diazaspiro[2.6]nonane-9-carbonyl]-1H-pyrrole-3-carbonitrile], the concentration for a half-maximal effect (EC50) in test [1] was less than 100 nM; in test [2], less than 100 nM; in test [3], 100 to 1000 nM; in test [4], 100 to 1000 nM.

Regarding `CCCCN1CCN(c2ncnc3[nH]ccc23)CC2(CC2)C1` [Example 279, 4-(5-butyl-5,8-diazaspiro[2.6]nonan-8-yl)-7H-pyrrolo[2,3-d]pyrimidine], the EC50 in test [1], in test [2], in test [3] and in test [4] was more than 1000 nM throughout.

As to `CCCCN1CCCN(c2ncnc3[nH]ccc23)CC12CC2` [Example 281, 4-(9-butyl-5,9-diazaspiro[2.6]nonan-5-yl)-7H-pyrrolo[2,3-d]pyrimidine], the EC50 was 100 to 1000 nM in test [1], 100 to 1000 nM in test [2], 100 to 1000 nM in test [3] and more than 1000 nM in test [4].

`CCCCC(=O)Nc1nc(N2CCN(Cc3ccccc3)CC3(CC3)C2)c2cc[nH]c2n1` [Example 282, N-[4-(5-benzyl-5,8-diazaspiro[2.6]nonan-8-yl)-7H-pyrrolo[2,3-d]pyrimidin-2-yl]pentanamide]: the half-maximal effective concentration (EC50) in test [1], in test [2], in test [3] and in test [4] was more than 1000 nM in each case.

In the case of `CCCCC(=O)Nc1nc(N2CCCN(Cc3ccccc3)C3(CC3)C2)c2cc[nH]c2n1` [Example 283, N-[4-(9-benzyl-5,9-diazaspiro[2.6]nonan-5-yl)-7H-pyrrolo[2,3-d]pyrimidin-2-yl]pentanamide], the EC50 in test [1], in test [2], in test [3] and in test [4] was more than 1000 nM throughout.

Consider `CC1CN(c2ncnc3[nH]ccc23)CC2(CC2)CN1C(=O)c1ccccc1` (centres unmarked) [Example 284, [7-methyl-5-(7H-pyrrolo[2,3-d]pyrimidin-4-yl)-5,8-diazaspiro[2.6]nonan-8-yl]-phenyl-methanone], for which the EC50 in test [1], in test [2], in test [3] and in test [4] was more than 1000 nM each time.

In the case of `CC1CN(c2ncnc3[nH]ccc23)CC2(CC2)CN1C(=O)CC1CCCC1` (centres unmarked) [Example 285, 2-cyclopentyl-1-[7-methyl-5-(7H-pyrrolo[2,3-d]pyrimidin-4-yl)-5,8-diazaspiro[2.6]nonan-8-yl]ethanone], the concentration giving a half-maximal response (EC50) in test [1] was 100 to 1000 nM; in test [2], 100 to 1000 nM; in test [3], more than 1000 nM; in test [4], more than 1000 nM.

On to `CC1CN(c2ncnc3[nH]ccc23)CC2(CC2)CN1C(=O)Cc1ccc(C#N)cc1` (centres unmarked) [Example 286, 4-[2-[7-methyl-5-(7H-pyrrolo[2,3-d]pyrimidin-4-yl)-5,8-diazaspiro[2.6]nonan-8-yl]-2-oxo-ethyl]benzonitrile], for which the concentration giving a half-maximal response (EC50) in test [1], in test [2], in test [3] and in test [4] was more than 1000 nM in each case.

With `c1nc(N2CCNCC3(CC3)C2)c2cc[nH]c2n1` [Example 290], the EC50 in test [1], in test [2], in test [3] and in test [4] was more than 1000 nM in each case.

Consider `c1nc(N2CCNC3(CC2)CC3)c2cc[nH]c2n1` [Example 291], for which the concentration giving a half-maximal response (EC50) in test [1], in test [2], in test [3] and in test [4] was more than 1000 nM throughout.

For the compound `CC1CN(c2ncnc3[nH]ccc23)CC2(CC2)CN1` (centres unmarked) [Example 293], the EC50 in test [1], in test [2], in test [3] and in test [4] was more than 1000 nM throughout.

As for `CCCCC(=O)Nc1nc(N2CCNCC3(CC3)C2)c2cc[nH]c2n1` [Example 294], the EC50 in test [1], in test [2], in test [3] and in test [4] was more than 1000 nM throughout.

In the case of `CCCCC(=O)Nc1nc(N2CCCNC3(CC3)C2)c2cc[nH]c2n1` [Example 295], the 50% effective concentration (EC50) in test [1], in test [2], in test [3] and in test [4] was more than 1000 nM throughout.
